{"source": "patent US20180016616A1", "about": "“METHODS AND COMPOSITIONS FOR THE DETECTION OF FUNCTIONAL CLOSTRIDIUM DIFFICILE TOXINS” (BOARD OF REGENTS OF THE UNIVERSITY OF TEXAS SYSTEM, priority 2011, published 2018)", "key": {"C. difficile toxin A [1]": {"target": "T1, C. difficile toxin A (Clostridioides difficile, UniProt P16154)", "T1 sequence (P16154 whole entry, looked up)": "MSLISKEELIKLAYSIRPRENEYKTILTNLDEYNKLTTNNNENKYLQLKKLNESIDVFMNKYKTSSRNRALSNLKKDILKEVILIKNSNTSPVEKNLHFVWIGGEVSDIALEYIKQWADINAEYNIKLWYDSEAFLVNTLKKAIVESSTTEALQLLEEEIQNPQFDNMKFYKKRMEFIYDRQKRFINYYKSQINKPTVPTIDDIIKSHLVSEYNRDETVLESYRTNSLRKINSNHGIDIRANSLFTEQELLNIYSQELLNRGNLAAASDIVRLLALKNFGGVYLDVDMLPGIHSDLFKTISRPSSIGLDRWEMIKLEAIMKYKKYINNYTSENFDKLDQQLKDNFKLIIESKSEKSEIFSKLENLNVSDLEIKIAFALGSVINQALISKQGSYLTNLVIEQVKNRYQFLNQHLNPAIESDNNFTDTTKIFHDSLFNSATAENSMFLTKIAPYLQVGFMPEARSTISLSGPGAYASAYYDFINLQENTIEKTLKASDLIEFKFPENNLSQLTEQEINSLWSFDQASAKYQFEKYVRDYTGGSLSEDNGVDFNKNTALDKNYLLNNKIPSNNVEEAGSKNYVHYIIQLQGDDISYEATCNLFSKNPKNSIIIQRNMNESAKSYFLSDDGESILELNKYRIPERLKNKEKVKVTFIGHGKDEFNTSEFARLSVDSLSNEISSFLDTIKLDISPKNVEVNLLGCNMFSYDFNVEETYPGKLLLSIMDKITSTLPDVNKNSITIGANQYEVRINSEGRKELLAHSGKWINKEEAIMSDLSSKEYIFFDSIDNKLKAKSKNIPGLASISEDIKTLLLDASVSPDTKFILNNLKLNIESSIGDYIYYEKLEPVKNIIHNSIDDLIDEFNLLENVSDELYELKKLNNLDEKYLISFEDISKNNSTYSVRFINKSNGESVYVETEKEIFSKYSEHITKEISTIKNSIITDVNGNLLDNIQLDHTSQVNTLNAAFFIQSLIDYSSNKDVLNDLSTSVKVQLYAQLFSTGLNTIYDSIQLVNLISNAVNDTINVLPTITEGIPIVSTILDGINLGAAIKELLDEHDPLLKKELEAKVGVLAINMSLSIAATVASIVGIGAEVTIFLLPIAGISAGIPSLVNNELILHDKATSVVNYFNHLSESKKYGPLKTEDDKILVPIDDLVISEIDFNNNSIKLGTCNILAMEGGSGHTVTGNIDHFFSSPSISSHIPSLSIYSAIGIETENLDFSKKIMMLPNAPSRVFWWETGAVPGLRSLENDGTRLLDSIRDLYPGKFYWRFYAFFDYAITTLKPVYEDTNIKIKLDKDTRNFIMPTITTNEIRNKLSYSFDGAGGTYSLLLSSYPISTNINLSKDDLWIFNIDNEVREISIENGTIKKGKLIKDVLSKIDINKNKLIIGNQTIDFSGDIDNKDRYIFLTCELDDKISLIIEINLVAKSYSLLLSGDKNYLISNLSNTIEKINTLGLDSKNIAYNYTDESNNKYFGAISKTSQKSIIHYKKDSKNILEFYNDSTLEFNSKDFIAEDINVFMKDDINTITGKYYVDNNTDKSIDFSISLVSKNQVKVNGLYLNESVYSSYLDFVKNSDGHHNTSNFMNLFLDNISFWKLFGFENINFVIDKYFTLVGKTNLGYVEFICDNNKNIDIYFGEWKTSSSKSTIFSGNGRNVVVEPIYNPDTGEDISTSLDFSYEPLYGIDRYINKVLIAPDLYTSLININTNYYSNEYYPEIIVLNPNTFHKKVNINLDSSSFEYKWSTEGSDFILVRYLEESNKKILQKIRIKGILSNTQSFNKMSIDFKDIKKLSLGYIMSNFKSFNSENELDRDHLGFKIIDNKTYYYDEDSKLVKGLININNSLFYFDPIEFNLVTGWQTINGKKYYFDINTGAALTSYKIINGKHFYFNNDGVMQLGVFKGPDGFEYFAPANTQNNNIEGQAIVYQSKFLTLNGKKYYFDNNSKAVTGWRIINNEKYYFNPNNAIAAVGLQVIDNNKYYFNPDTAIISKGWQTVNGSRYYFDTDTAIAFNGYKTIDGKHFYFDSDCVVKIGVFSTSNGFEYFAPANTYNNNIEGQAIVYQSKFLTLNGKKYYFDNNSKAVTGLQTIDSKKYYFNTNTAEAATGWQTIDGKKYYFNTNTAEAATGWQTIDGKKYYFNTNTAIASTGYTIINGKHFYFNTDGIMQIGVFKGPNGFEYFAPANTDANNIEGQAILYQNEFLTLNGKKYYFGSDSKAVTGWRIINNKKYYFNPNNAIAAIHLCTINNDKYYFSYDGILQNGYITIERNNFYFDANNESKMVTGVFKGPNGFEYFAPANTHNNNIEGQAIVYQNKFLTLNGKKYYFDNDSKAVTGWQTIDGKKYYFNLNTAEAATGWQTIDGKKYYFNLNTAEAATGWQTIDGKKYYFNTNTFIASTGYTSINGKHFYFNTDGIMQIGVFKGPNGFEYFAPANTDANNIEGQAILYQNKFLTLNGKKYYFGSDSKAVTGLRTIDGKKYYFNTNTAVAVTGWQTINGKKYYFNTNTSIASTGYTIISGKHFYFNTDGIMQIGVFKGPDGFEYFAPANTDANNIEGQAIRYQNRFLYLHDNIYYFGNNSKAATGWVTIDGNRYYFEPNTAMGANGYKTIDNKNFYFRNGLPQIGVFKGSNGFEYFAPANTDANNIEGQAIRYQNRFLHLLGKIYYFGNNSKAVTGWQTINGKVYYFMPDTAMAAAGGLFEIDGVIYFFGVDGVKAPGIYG", "conditions": "0-300 mM"}, "mammalian β-glucosidases": {"tested_on": "mammalian β-glucosidases", "conditions": "cited from earlier work"}, "C. difficile spores": {"tested_on": "C. difficile spores", "conditions": "0.1% or approximately 1.9 mM"}, "C. difficile toxin B [2]": {"target": "T2, C. difficile toxin B (Clostridioides difficile, UniProt P18177)", "T2 sequence (P18177 whole entry)": "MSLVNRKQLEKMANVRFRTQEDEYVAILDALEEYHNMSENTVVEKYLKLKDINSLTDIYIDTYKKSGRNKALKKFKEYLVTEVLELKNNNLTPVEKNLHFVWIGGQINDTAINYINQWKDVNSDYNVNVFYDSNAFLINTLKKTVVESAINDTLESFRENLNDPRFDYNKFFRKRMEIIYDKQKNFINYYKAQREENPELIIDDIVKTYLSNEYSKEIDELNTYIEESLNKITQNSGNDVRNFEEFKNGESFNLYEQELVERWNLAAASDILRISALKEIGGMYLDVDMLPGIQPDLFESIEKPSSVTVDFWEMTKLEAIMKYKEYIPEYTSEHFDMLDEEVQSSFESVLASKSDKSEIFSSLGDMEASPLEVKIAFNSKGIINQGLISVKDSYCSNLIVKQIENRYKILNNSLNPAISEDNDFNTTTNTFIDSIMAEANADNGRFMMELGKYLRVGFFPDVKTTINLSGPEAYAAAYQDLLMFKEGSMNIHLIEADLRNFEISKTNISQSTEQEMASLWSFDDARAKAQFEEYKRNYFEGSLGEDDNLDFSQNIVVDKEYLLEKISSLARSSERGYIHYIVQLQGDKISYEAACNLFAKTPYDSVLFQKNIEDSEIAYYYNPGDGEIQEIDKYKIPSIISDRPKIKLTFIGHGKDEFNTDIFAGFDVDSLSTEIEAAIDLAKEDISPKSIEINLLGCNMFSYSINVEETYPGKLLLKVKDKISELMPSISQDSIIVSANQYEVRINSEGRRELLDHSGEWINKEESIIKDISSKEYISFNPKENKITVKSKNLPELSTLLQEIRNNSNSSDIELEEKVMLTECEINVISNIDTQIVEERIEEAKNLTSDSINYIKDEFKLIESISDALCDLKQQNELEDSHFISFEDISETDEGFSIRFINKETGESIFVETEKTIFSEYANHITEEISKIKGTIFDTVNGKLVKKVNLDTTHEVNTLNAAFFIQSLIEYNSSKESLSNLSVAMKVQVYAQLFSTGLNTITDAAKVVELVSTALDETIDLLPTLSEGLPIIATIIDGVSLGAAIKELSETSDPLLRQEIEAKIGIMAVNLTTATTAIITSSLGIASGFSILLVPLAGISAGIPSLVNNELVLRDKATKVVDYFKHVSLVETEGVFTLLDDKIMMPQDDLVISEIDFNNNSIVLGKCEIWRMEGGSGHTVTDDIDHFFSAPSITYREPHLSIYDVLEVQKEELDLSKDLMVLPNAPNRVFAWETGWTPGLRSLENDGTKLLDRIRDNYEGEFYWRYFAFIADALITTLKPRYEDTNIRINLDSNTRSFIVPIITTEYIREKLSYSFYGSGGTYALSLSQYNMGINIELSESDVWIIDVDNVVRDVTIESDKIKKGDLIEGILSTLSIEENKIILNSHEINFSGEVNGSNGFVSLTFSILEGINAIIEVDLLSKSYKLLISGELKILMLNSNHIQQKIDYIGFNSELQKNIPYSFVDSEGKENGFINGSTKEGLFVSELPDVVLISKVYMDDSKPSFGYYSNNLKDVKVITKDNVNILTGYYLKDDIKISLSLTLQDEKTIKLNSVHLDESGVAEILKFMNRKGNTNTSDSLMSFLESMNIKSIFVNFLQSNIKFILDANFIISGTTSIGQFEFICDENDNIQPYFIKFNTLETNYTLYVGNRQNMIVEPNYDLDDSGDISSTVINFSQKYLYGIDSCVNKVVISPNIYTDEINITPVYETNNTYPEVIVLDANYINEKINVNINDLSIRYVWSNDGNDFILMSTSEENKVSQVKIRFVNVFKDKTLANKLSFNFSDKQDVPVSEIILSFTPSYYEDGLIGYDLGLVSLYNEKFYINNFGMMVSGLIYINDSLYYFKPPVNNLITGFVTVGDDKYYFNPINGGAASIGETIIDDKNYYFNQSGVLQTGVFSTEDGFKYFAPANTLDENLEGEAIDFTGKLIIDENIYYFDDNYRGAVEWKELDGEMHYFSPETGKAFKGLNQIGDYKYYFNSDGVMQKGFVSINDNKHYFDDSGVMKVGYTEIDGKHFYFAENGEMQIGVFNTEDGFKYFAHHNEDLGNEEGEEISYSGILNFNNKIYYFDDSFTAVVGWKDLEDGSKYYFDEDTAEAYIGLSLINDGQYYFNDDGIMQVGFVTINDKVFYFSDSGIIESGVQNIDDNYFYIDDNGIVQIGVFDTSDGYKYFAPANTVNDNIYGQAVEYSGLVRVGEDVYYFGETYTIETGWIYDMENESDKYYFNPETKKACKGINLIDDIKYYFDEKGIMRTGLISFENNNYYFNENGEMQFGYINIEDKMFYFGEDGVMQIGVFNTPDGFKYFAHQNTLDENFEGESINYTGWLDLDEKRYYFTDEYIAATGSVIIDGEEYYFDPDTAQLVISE", "assay": "biochemical", "conditions": "read-out: reduction of toxin B activity (percent inhibition)"}, "C. difficile toxin A [3]": {"target": "T1, C. difficile toxin A", "assay": "biochemical", "conditions": "read-out: reduction of toxin A activity (percent inhibition)"}, "C. difficile toxin B [4]": {"target": "T2, C. difficile toxin B", "conditions": "0-300 mM"}, "[5]": {"tested_on": "C. difficile toxins A and B", "conditions": "0.1% or approximately 1.9 mM"}, "[6]": {"tested_on": "C. difficile toxins A and B", "assay": "Evaluation of chromogenic substrates for the Cdifftox Activity assay", "assay_type": "biochemical, Clostridium difficile", "procedure": "A Cdifftox Activity assay was used to identify fractions that contained PNPG cleavage activity. The assay consists of the Cdifftox substrate reagent composed of 10 mM PNPG, 50 mM Tris-HCl (pH 7.4), 50 mM NaCl, and 100 μM MnCl2. The assay was performed in Costar sterile polystyrene 96-well plates (Corning Inc., NY) by adding to each well 200 μl of sample or culture supernatant fluid containing the toxins and 100 μl of the reagent. The plate was incubated at 37° C. for 1-4 hrs and each reaction was stopped by the addition to the well of 40 μl of 3 M Na2CO3. Cleavage of the substrate was monitored by measuring the absorbance between 400-500 nm, with a SPECTRA max at 410 nm.\nPlus 384 spectrophotometer (Molecular Devices, Sunnyvale, Calif.). To identify the best substrate for the assay, a number of substrates were evaluated including: p-nitrophenyl-α-D-glucopyranoside, 4-aminophenyl-α-D-glucopyranoside, 4-amino-phenyl-β-D-glucopyranoside, 5-benzyloxy-3-indoxyl-β-D-glucopyranoside, 5-bromo-6-chloro-3-indoxyl-β-D-glucopyranoside, 6-bromo-2-naphthyl-α-D-glucopyranoside, 6-chloro-3-indoxyl-α-D-glucopyranoside, 6-chloro-3-indoxyl-N-acetyl-beta-D-glucos-aminide, 5-bromo-3-indoxyl-β-D-galactopyranoside, and 5-bromo-4-chloro-3-indoxyl-β-D-galactopyranoside. […]"}}, "note": "Read-outs that look alike come from different tables or passages of the source."}
{"molecule": "C[C@H](CCC(=O)NCCS(=O)(=O)O)[C@H]1CC[C@H]2[C@@H]3[C@H](O)C[C@@H]4C[C@H](O)CC[C@]4(C)[C@H]3C[C@H](O)[C@]12C", "note": "[sodium taurocholate]", "values": [{"measurement": "inhibition of toxin A PNPG cleavage activity, dose response", "setting": "C. difficile toxin A [1]", "result": "dose-dependent"}, {"measurement": "inhibition of β-glucosidases, mode", "setting": "mammalian β-glucosidases; listed as Sodium taurocholate", "result": "non-competitively inhibit"}, {"measurement": "inhibition of β-glucosidases, mode", "setting": "mammalian β-glucosidases; listed as taurocholate", "result": "non-competitive"}, {"measurement": "effect on C. difficile spores in plate assay medium", "setting": "C. difficile spores", "result": "serves as a germinant"}, {"measurement": "inhibition at 300000 µM", "setting": "C. difficile toxin B [2]", "result": 86, "unit": "%"}, {"measurement": "inhibition at 300000 µM", "setting": "C. difficile toxin A [3]", "result": 71, "unit": "%"}, {"measurement": "inhibition of toxin B PNPG cleavage activity, dose response", "setting": "C. difficile toxin B [4]", "result": "dose-dependent"}, {"measurement": "inhibition of cleavage activity of the toxins at low concentration", "setting": "[5]", "result": "does not inhibit"}]}
{"molecule": "O=[N+]([O-])c1ccc(O[C@@H]2O[C@H](CO)[C@@H](O)[C@H](O)[C@H]2O)cc1", "note": "[PNPG, p-nitrophenyl-β-D-glucopyranoside]", "values": [{"measurement": "cleavage by the toxins compared with other substrates evaluated", "setting": "[6]", "result": "most efficient and sensitive, and had the lowest background"}]}
{"molecule": "phosphatidylserine", "values": [{"measurement": "inhibition of β-glucosidases, mode", "setting": "mammalian β-glucosidases", "result": "non-competitive"}]}
